Assay results: patent US7317014B2, “Bio-active pyrimidine molecules” (Orchid Research Laboratories, Ltd., priority 2002, dated 2008)

Assays:
MCF7 = assay: DTP human tumor cell line one-dose prescreen, MCF7; type: cell-based; details: Concentration (100 μm), Breast MCF7, test/control (T/C)
Procedure: (§1) The current assay utilizes a 384 well plate format and fluorescent staining technologies resulting in greater screening capacity for testing of synthetic samples. Cell Lines The cell lines of the cancer screening panel are grown in RPMI 1640 medium containing 5% fetal bovine serum and 2 mM L-glutamine. For a typical screening experiment, cells are inoculated into 96 well microtiter plates in 100 μL. After cell inoculation, the microtiter plates are incubated at 37° C., 5% CO2, 95% air and 100% relative humidity for 24 h prior to addition of experimental drugs. The cells are plated a densities of 5000 cells/well (MCF7), 1000 cells/well (NCI-H460), and 7500 cells/well (SF-268) to allow for varying doubling time of the cell lines. Each plate contains all three cell lines, a series of dilutions of standard agents, total kill wells and appropriate controls. Plates are incubated under standard conditions for 24 hours prior to addition of experimental compounds or extracts. Addition of Experimental Agents (Pure Compounds) […] Two standard drugs, meaning that their activities against the cell lines are well documented, are tested against each cell line: NSC 19893 (5-FU) and NSC 123127 (Adriamycin). Endpoint Measurement After compound addition, plates are incubated at standard conditions for ?hours, 10 μl/well Alamar Blue is added and the plates are incubated for an additional 4 hours. Fluorescence is measured using an excitation wavelength of 530 nm and an emission wavelength of 590 nm. Calculation of Percent Test Cell Growth/Control (Untreated) Cell Growth (T/C) Calculation of Percent Test Cell Growth/Control (Untreated) Cell Growth (T/C) Percent growth is calculated on a plate-by-plate basis for test wells relative to control wells. Percent Growth is expressed as the ratio of fluorescence of the test well to the average fluorescence of the control wells ×100.

Male Wistar rats = assay: Rat carrageenan paw edema test; type: in vivo; details: oral
SF-268 = assay: DTP human tumor cell line one-dose prescreen, SF-268; type: cell-based; details: Concentration (100 μm), CNS SF-268, test/control (T/C)
Procedure: as §1

COX-2 = target: T1, COX-2 (Homo sapiens, UniProt P35354); assay: Human whole blood assay, COX-2 inhibition (PGE2 after LPS); type: cell-based; details: Conc. 0.1 μM, 24 h
T1 construct: incubation of human blood with lipopolysaccharide (LPS), which induces COX-2 production in the blood; endogenous in cells; host or cells: fresh human whole blood from male volunteers, LPS-stimulated, aspirin-pretreated
T1 sequence (P35354 18-604): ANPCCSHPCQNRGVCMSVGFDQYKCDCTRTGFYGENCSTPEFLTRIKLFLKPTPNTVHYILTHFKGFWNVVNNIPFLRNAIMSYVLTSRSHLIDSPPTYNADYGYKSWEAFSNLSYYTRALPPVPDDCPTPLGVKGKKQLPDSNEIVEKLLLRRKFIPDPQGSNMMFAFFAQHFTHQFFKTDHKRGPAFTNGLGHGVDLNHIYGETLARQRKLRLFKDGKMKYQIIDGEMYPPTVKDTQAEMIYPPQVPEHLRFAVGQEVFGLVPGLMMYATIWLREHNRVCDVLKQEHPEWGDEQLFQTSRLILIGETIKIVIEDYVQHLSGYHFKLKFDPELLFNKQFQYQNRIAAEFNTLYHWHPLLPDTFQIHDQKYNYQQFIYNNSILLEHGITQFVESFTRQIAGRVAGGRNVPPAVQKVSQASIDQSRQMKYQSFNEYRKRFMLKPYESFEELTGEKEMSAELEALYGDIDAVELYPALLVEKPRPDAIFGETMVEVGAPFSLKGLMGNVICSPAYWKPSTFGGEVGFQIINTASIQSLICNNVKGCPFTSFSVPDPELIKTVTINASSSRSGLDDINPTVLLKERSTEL
Procedure: The COX-2 inhibition activity of the compounds illustrated in the examples was determined by the following method. Human Whole Blood Assay Human whole blood provides a protein and cell rich milieu appropriate for the study of biochemical efficacy of anti-inflammatory compounds such as selective COX-2 inhibitors. […] This is correlating with the observation that COX-2 inhibitors have no effect on prostaglandin E2 (PGE2) production in normal blood. These inhibitors are active only after incubation of human blood with lipopolysaccharide (LPS), which induces COX-2 production in the blood. Method Fresh blood was collected in tubes containing potassium EDTA by vein puncture from male volunteers. The subjects should have no apparent inflammatory conditions and not taken NSAIDs for atleast 7 days prior to blood collection. Blood was treated with aspirin in vitro (10 μg/ml, at time zero) to inactivate COX-1, and then with LPS (10 μg/ml) along with test agents or vehicle. The blood was incubated for 24 h at 37° C., after which the tubes were centrifuged, the plasma was separated and stored at −80° C. (J. Pharmacol. Exp. Ther., 271, 1705, 1994; Proc. Natl. Acad. Sci. USA., 96, 7563, 1999). The plasma was assayed for PGE2 using Cayman ELISA kit as per the procedure outlined by the manufacturer (Cayman Chemicals, Ann Arbor, USA). The plasma was also tested for TNF-α, IL-1β, and IL-6 using appropriate human ELISA kit as per the procedure of manufacturer (Cayman Chemicals, Ann Arbor, USA).

TNF-α = TNF-α production from LPS-stimulated human monocytes (ELISA); type: cell-based; details: Monocyte, Conc. 1 μM
NCI-H460 = assay: DTP human tumor cell line one-dose prescreen, NCI-H460; type: cell-based; details: Concentration (100 μm), Lung NCI-H460, test/control (T/C)
Procedure: as §1

inhibition at 0.1 µM (COX-2): 51.9% | melting point: 195 to 197 °C
Compound: CS(=O)(=O)c1ccc(-c2nc(C(F)(F)F)nc(Cl)c2-c2ccc(F)cc2)cc1 [Example 6, 4-chloro-5-(4-fluorophenyl)-6-[4-(methylsulfonyl)phenyl]-2-(trifluoromethyl)pyrimidine]
Percentage Growth Breast MCF7 (MCF7): 0 | Rat Paw Edema model % Inhibition (10 mg/kg body weight) (Male Wistar rats): 64% | Percentage Growth CNS SF-268 (SF-268): 12 | inhibition at 1 µM (TNF-α): 51.5% | Percentage Growth Lung NCI-H460 (NCI-H460): 0
